Test results from ChEMBL document CHEMBL4261619, “Sentulic acid isolated from Sandoricum koetjape Merr attenuates lipopolysaccharide and interferon gamma co-stimulated nitric oxide production in murine macrophage RAW264 cells” (Bioorg Med Chem Lett, 2018).
The source made the active and inactive calls. No cut-off for these calls is given here.

Key:
Assay type in all cases: cell-based
[1] = target: T1, Toll-like receptor 4 (Mus musculus) (UniProt Q9QUK6); experiment: Inhibition of LPS binding to TLR4 in IFNgamma-stimulated mouse RAW264.7 cells assessed as effect on ratio of phosphorylated p38 to total p38 at 100 uM measured after 15 mins by Western blot analysis relative to beta-actin (reference value: 4.9)
T1 sequence (whole entry): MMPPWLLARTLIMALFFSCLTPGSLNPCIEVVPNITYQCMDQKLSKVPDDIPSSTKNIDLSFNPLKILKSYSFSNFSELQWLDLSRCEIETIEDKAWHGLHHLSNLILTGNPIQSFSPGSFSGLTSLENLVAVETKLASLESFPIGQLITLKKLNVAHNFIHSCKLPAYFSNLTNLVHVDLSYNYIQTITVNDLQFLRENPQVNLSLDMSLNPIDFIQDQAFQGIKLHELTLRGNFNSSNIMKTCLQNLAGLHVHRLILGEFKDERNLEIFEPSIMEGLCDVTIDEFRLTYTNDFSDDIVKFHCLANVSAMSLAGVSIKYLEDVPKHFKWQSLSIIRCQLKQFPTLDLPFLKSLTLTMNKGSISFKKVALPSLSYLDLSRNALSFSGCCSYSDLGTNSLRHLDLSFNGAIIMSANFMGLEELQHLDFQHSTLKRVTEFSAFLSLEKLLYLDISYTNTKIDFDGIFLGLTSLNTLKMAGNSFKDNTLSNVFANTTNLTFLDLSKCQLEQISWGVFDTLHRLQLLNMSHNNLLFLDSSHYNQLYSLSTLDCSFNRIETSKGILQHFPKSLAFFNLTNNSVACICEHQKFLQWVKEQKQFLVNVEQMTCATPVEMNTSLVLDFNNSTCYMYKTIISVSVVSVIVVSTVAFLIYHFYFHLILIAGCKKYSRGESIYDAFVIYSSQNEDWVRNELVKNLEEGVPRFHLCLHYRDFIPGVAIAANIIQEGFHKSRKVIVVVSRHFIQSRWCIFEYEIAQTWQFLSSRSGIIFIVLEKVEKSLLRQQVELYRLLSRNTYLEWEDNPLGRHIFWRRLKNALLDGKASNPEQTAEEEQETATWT

[2] = target: T1, Toll-like receptor 4 (Mus musculus); experiment: Inhibition of LPS binding to TLR4 in IFNgamma-stimulated mouse RAW264.7 cells assessed as suppression of IFNgamma mRNA expression at 100 uM by qRT-PCR analysis
[3] = target: T1, Toll-like receptor 4 (Mus musculus); experiment: Inhibition of LPS binding to TLR4 in IFNgamma-stimulated mouse RAW264.7 cells assessed as effect on ratio of phosphorylated p38 to total p38 at 100 uM measured after 30 mins by Western blot analysis relative to beta-actin (reference value: 4.8)
[4] = target: T1, Toll-like receptor 4 (Mus musculus); experiment: Inhibition of LPS binding to TLR4 in IFNgamma-stimulated mouse RAW264.7 cells assessed as effect on ratio of phosphorylated JNK to total JNK at 100 uM measured after 30 mins by Western blot analysis relative to beta-actin (reference value: 2.3)
[5] = target: T1, Toll-like receptor 4 (Mus musculus); experiment: Inhibition of LPS binding to TLR4 in IFNgamma-stimulated mouse RAW264.7 cells assessed as suppression of COX2 mRNA expression at 100 uM by qRT-PCR analysis
[6] = target: T1, Toll-like receptor 4 (Mus musculus); experiment: Inhibition of LPS binding to TLR4 in IFNgamma-stimulated mouse RAW264.7 cells assessed as reduction in iNOS expression at 100 uM by Western blot analysis
RAW264.7 = experiment: Inhibition of IFNgamma binding to IFNGR in LPS-stimulated mouse RAW264.7 cells assessed as effect on ratio of phosphorylated Stat1 to total Stat1 at 100 uM measured after 30 mins by Western blot analysis relative to beta-actin (reference value: 1.9)
[7] = target: T1, Toll-like receptor 4 (Mus musculus); experiment: Inhibition of LPS binding to TLR4 in IFNgamma-stimulated mouse RAW264.7 cells assessed as suppression of NFkappaB nuclear translocation
[8] = target: T1, Toll-like receptor 4 (Mus musculus); experiment: Inhibition of LPS binding to TLR4 in IFNgamma-stimulated mouse RAW264.7 cells assessed as effect on ratio of phosphorylated NFkappaB to total NFkappaB at 100 uM measured after 60 mins by Western blot analysis relative to beta-actin (reference value: 1)
[9] = target: T1, Toll-like receptor 4 (Mus musculus); experiment: Inhibition of LPS binding to TLR4 in IFNgamma-stimulated mouse RAW264.7 cells assessed as effect on ratio of phosphorylated TAK1 to total TAK1 at 100 uM measured after 30 mins by Western blot analysis relative to beta-actin (reference value: 3.7)
[10] = target: T1, Toll-like receptor 4 (Mus musculus); experiment: Inhibition of LPS binding to TLR4 in IFNgamma-stimulated mouse RAW264.7 cells assessed as effect on ratio of phosphorylated AKT to total AKT at 100 uM measured after 120 mins by Western blot analysis relative to beta-actin (reference value: 1.4)
[11] = target: T1, Toll-like receptor 4 (Mus musculus); experiment: Inhibition of LPS binding to TLR4 in IFNgamma-stimulated mouse RAW264.7 cells assessed as effect on ratio of phosphorylated JNK to total JNK at 100 uM measured after 15 mins by Western blot analysis relative to beta-actin (reference value: 2)
[12] = target: T1, Toll-like receptor 4 (Mus musculus); experiment: Inhibition of LPS binding to TLR4 in IFNgamma-stimulated mouse RAW264.7 cells assessed as effect on ratio of phosphorylated TAK1 to total TAK1 at 100 uM measured after 120 mins by Western blot analysis relative to beta-actin (reference value: 3)
[13] = target: T1, Toll-like receptor 4 (Mus musculus); experiment: Inhibition of LPS binding to TLR4 in IFNgamma-stimulated mouse RAW264.7 cells assessed as effect on ratio of phosphorylated NFkappaB to total NFkappaB at 100 uM measured after 120 mins by Western blot analysis relative to beta-actin (reference value: 1.2)
[14] = target: T1, Toll-like receptor 4 (Mus musculus); experiment: Inhibition of LPS binding to TLR4 in IFNgamma-stimulated mouse RAW264.7 cells assessed as effect on ratio of phosphorylated p38 to total p38 at 100 uM measured after 120 mins by Western blot analysis relative to beta-actin (reference value: 2.2)
[15] = target: T1, Toll-like receptor 4 (Mus musculus); experiment: Inhibition of LPS binding to TLR4 in IFNgamma-stimulated mouse RAW264.7 cells assessed as effect on ratio of phosphorylated AKT to total AKT at 100 uM measured after 30 mins by Western blot analysis relative to beta-actin (reference value: 1.4)
[16] = target: T1, Toll-like receptor 4 (Mus musculus); experiment: Inhibition of LPS binding to TLR4 in IFNgamma-stimulated mouse RAW264.7 cells assessed as effect on ratio of phosphorylated JNK to total JNK at 100 uM measured after 120 mins by Western blot analysis relative to beta-actin (reference value: 1)
[17] = target: T1, Toll-like receptor 4 (Mus musculus); experiment: Inhibition of LPS binding to TLR4 in IFNgamma-stimulated mouse RAW264.7 cells assessed as effect on ratio of phosphorylated NFkappaB to total NFkappaB at 100 uM measured after 30 mins by Western blot analysis relative to beta-actin (reference value: 2.7)
[18] = target: T1, Toll-like receptor 4 (Mus musculus); experiment: Inhibition of LPS binding to TLR4 in IFNgamma-stimulated mouse RAW264.7 cells assessed as effect on ratio of phosphorylated AKT to total AKT at 100 uM measured after 60 mins by Western blot analysis relative to beta-actin (reference value: 1.4)

For `C=C(C)[C@@H]1CC[C@]2(C)[C@H](CC=C3[C@@H]4CC(C)(C)CC[C@]4(C)CC[C@]32C(=O)O)[C@@]1(C)CCC(=O)O`, the fold change (FC) [1] was 4, the inhibition [2] was “Active” and the fold change (FC) [3] was 4. For the same molecule, the fold change (FC) [4] was 1.5, the inhibition [5] was “inactive” and the inhibition [6] was “Active”. The fold change (FC) (RAW264.7) was 1.2, the inhibition [7] was “Active” and the fold change (FC) [8] was 1. For the same molecule, the fold change (FC) [9] was 0.6, the fold change (FC) [10] was 0.9 and the fold change (FC) [11] was 1. The fold change (FC) [12] was 0.9, the fold change (FC) [13] was 1 and the fold change (FC) [14] was 1.3. For the same molecule, the fold change (FC) [15] was 1.2, the fold change (FC) [16] was 1.1 and the fold change (FC) [17] was 1.6. The fold change (FC) [18] was 1.
